# Measured values taken from patent publication US4133805A, “Cyclic undecapeptides related to somatostatin and intermediates therefor” (American Home Products Corporation, priority 1975, dated 1979).
# Tests used:
# Assay type in all cases: in vivo, Albino male rats
# insulin = experiment: Test Procedure II: arginine-stimulated plasma insulin in nembutal-treated rats
# Procedure: (§1) Albino male rats are arranged in three groups (nine rats/group) and injected i.p. with nembutal at 50 mg/kg. Fifteen minutes after the nembutal injection they are injected s.c. according to group with (a) test compound, typically 500-2000 μg/kg; (b) SRIF 200 μg/kg; or (c) physiological saline. Ten minutes later 0.5 ml. of arginine (300 mg/ml, pH 7.2) is injected into the heart. The rats are decapitated five minutes after receiving the arginine, and the blood is collected into Trasylol-EDTA. Appropriate aliquots are then assayed for growth hormone, glucagon and insulin. […] Comparisons between control and experimental values are statistically evaluated by the analysis of variants method and statistical significance (p) at 0.05 or lower is used as the index of activity.
# growth hormone = experiment: Test Procedure II: arginine-stimulated plasma growth hormone in nembutal-treated rats; settings: p = <0.01
# Procedure: as §1
# glucagon = experiment: Test Procedure II: arginine-stimulated plasma glucagon in nembutal-treated rats
# Procedure: as §1
smiles,measurement,setting,value
"C[C@H](N)C(=O)NCC(=O)N[C@H]1CSSC[C@@H](C(=O)O)NC(=O)[C@H](CO)NC(=O)[C@H]([C@@H](C)O)NC(=O)[C@H](Cc2ccccc2)NC(=O)[C@H]([C@@H](C)O)NC(=O)[C@H](CCCCN)NC(=O)[C@H](Cc2c[nH]c3ccccc23)NC(=O)[C@H](Cc2ccccc2)NC(=O)[C@H](Cc2ccccc2)NC(=O)[C@H](CC(N)=O)NC(=O)[C@H](CCCCN)NC1=O [SRIF, somatostatin]",Insulin,"insulin; 200 μg/kg s.c., control 167 ± 12, p = <0.01",117 ± 12 μ units/ml
same,Insulin,"insulin; 0.2 mg/kg s.c., control 151 ± 15, p = <0.05",111 ± 10 μ units/ml
same,GH,"growth hormone; 10 μg/kg s.c., control 543 ± 86",241 ± 15 ng/mL
same,GH,"growth hormone; 20 μg/kg s.c., control 619 ± 103",232 ± 87 ng/mL
same,GH,"growth hormone; 0.2 mg/kg s.c., control 287 ± 53",65 ± 16 ng/mL
same,Glucagon,"glucagon; 200 μg/kg s.c., control 62 ± 8, p = <0.01",13 ± 4 pg/mL
same,Glucagon,"glucagon; 0.2 mg/kg s.c., control 20 ± 1, p = <0.05",12 ± 3 pg/mL
